Assay results from the supplement of paper PMC11208160.

Assay: recombinant UMI read abundance after kanamycin selection (control-corrected) (log10(CPM+1)); higher = more efficient recombination; extreme values may be limits of the assay; sequences stand for … in AGTGCAGAGAAAATCGGCCAGTTTTCTCTGCCTGCAGTCCGCATGCCGTGGGACCCCTTGGGTTCTAACCTGTTGCCTAGATTTATGCAGCGGACTGCCTTTCTCCCAAAGTGATAAACCGG…AGGTTGGTTTCACT; site = the 11-nt donor
Procedure, shortened: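 Counts of recombinant UMIs were reported as log10(CPM+1). Before that, they were converted to CPM, averaged over replicates and scaled using control-derived factors. They came from PCR across the donor–target junction after Escherichia coli carrying the pair library and target plasmid was plated on IPTG (0.07 mM) plus kanamycin, or unselected, in two replicates each.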
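Further: IS621 bridge recombinase in Escherichia coli cells against a fixed T5 target plasmid.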

Row | Sequence | recombinant UMI read abundance (log10)
1 | GTTGTTCCATGGACCGGTTTTCCCGGTAATCCGTATTTGGC (site GTTGTTCCTGC) | 0
2 | GTTGTTCCATGGACCGGTTTTCCCGGTAATCCGTATTTGGC (site GTTGTTCCTTC) | 0.0051
3 | GTTGTTCCATGGACCGGTTTTCCCGGTAATCCGTATTTGGG (site GTTGTTCCTAC) | 0.0139
4 | GTTGTTCCATGGACCGGTTTTCCCGGTAATCCGTATTTGGG (site GTTGTTCCTCC) | 0.0029
5 | GTTGTTCCATGGACCGGTTTTCCCGGTAATCCGTATTTGGG (site GTTGTTCCTGC) | 0
6 | GTTGTTCCATGGACCGGTTTTCCCGGTAATCCGTATTTGGG (site GTTGTTCCTTC) | 0.00718
7 | GTTTAACCATGGACCGGTTTTCCCGGTAATCCGTATTTGGT (site GTTTAACCTAC) | 0.00474
8 | GTTTACCCATGGACCGGTTTTCCCGGTAATCCGTATTTGGG (site GTTTACCCTCC) | 0.00501
9 | GTTTATTCATGGACCGGTTTTCCCGGTAATCCGTATTTGCT (site GTTTATTCTAG) | 1.99
10 | GTTTATTCATGGACCGGTTTTCCCGGTAATCCGTATTTGGT (site GTTTATTCTAC) | 1.61
11 | GTTTCGGCATGGACCGGTTTTCCCGGTAATCCGTATTTGGT (site GTTTCGGCTAC) | 0.282
12 | GTTTGCCCATGGACCGGTTTTCCCGGTAATCCGTATTTGAT (site GATTGCCCTAT) | 0.00963
13 | GTTTGCCCATGGACCGGTTTTCCCGGTAATCCGTATTTGAT (site GCTTGCCCTAT) | 0.0198
14 | GTTTGCCCATGGACCGGTTTTCCCGGTAATCCGTATTTGAT (site GGTTGCCCTAT) | 0.018
15 | GTTTGCCCATGGACCGGTTTTCCCGGTAATCCGTATTTGAT (site GTTTGCCCTAT) | 0.0181
16 | GTTTGCGCATGGACCGGTTTTCCCGGTAATCCGTATTTGTC (site GTTTGCGCTGA) | 1.54
17 | TAAACAACATGGACCGGTTTTCCCGGTAATCCGTATTTGTA (site TAAACAACTTA) | 0.815
18 | TAAACCACATGGACCGGTTTTCCCGGTAATCCGTATTTGAT (site TAAACCACTAT) | 1.3
19 | TAAAGTCCATGGACCGGTTTTCCCGGTAATCCGTATTTGCA (site TAAAGTCCTTA) | 0.00275
20 | TAAAGTCCATGGACCGGTTTTCCCGGTAATCCGTATTTGCA (site TAAAGTCCTTC) | 0.00901
21 | TAAAGTCCATGGACCGGTTTTCCCGGTAATCCGTATTTGCA (site TAAAGTCCTTG) | 1.07
22 | TAAAGTCCATGGACCGGTTTTCCCGGTAATCCGTATTTGCA (site TAAAGTCCTTT) | 0
23 | TAAAGTCCATGGACCGGTTTTCCCGGTAATCCGTATTTGTG (site TAAAGTCCTAA) | 0.00597

Row | Sequence | recombinant UMI read abundance (log10)
24 | TAAAGTCCATGGACCGGTTTTCCCGGTAATCCGTATTTGTG (site TAAAGTCCTCA) | 0.64
25 | TAAAGTCCATGGACCGGTTTTCCCGGTAATCCGTATTTGTG (site TAAAGTCCTGA) | 0
26 | TAAAGTCCATGGACCGGTTTTCCCGGTAATCCGTATTTGTG (site TAAAGTCCTTA) | 0.19
27 | TAAATTTCATGGACCGGTTTTCCCGGTAATCCGTATTTGCC (site TAAATTTCTGG) | 0
28 | TAACAATCATGGACCGGTTTTCCCGGTAATCCGTATTTGTC (site TAACAATCTGA) | 2.03
29 | TAACCTCCATGGACCGGTTTTCCCGGTAATCCGTATTTGAT (site TAACCTCCTAT) | 0
30 | TAACGCACATGGACCGGTTTTCCCGGTAATCCGTATTTGTA (site TAACGCACTTA) | 1.61
31 | TAACGTTCATGGACCGGTTTTCCCGGTAATCCGTATTTGCA (site TAACGTTCTTG) | 1.75
32 | TAACTGACATGGACCGGTTTTCCCGGTAATCCGTATTTGAT (site TAACTGACTAT) | 1.54
33 | TAACTGCCATGGACCGGTTTTCCCGGTAATCCGTATTTGTG (site TAACTGCCTCA) | 0.00877
34 | TAACTTACATGGACCGGTTTTCCCGGTAATCCGTATTTGGC (site TAACTTACTGC) | 1.32
35 | TAAGAATCATGGACCGGTTTTCCCGGTAATCCGTATTTGCG (site TAAGAATCTCG) | 2.9
36 | TAAGAATCATGGACCGGTTTTCCCGGTAATCCGTATTTGCG (site TACGAATCTCG) | 1.95
37 | TAAGAATCATGGACCGGTTTTCCCGGTAATCCGTATTTGCG (site TAGGAATCTCG) | 2.51
38 | TAAGAATCATGGACCGGTTTTCCCGGTAATCCGTATTTGCG (site TATGAATCTCG) | 1.97
39 | TAAGACTCATGGACCGGTTTTCCCGGTAATCCGTATTTGTC (site TAAGACTCTGA) | 2.64
40 | TAAGCCGCATGGACCGGTTTTCCCGGTAATCCGTATTTGCA (site GGGTTGCCTGA) | 0
41 | TAAGCTGCATGGACCGGTTTTCCCGGTAATCCGTATTTGAG (site TAAGCTGCTCT) | 1.32
42 | TAAGCTGCATGGACCGGTTTTCCCGGTAATCCGTATTTGCC (site TAAGCTGCTGG) | 1.94
43 | TAAGGTACATGGACCGGTTTTCCCGGTAATCCGTATTTGTA (site TAAGGTACTTA) | 2.09
44 | TAAGTTGCATGGACCGGTTTTCCCGGTAATCCGTATTTGTG (site TAAGTTGCTCA) | 1.4
45 | TAATAGTCATGGACCGGTTTTCCCGGTAATCCGTATTTGCG (site TAATAGTCTCG) | 3.15
46 | TAATCACCATGGACCGGTTTTCCCGGTAATCCGTATTTGAG (site TAATCACCTCT) | 0.0222

Row | Sequence | recombinant UMI read abundance (log10)
47 | TAATGACCATGGACCGGTTTTCCCGGTAATCCGTATTTGCC (site TAATGACCTGG) | 0
48 | TAATGACCATGGACCGGTTTTCCCGGTAATCCGTATTTGGG (site TAATGAACTCC) | 0.00176
49 | TAATGACCATGGACCGGTTTTCCCGGTAATCCGTATTTGGG (site TAATGACCTCC) | 0.00316
50 | TAATGACCATGGACCGGTTTTCCCGGTAATCCGTATTTGGG (site TAATGAGCTCC) | 0.0136
51 | TAATGACCATGGACCGGTTTTCCCGGTAATCCGTATTTGGG (site TAATGATCTCC) | 0.00372
52 | TAATGAGCATGGACCGGTTTTCCCGGTAATCCGTATTTGTG (site TAATGAGCTCA) | 1.16
53 | TAATGAGCATGGACCGGTTTTCCCGGTAATCCGTATTTGTG (site TAATGAGCTCC) | 0.00287
54 | TAATGAGCATGGACCGGTTTTCCCGGTAATCCGTATTTGTG (site TAATGAGCTCG) | 1.54
55 | TAATGAGCATGGACCGGTTTTCCCGGTAATCCGTATTTGTG (site TAATGAGCTCT) | 0.133
56 | TAATGTGCATGGACCGGTTTTCCCGGTAATCCGTATTTGGG (site TAATGAGCTCC) | 0.0156
57 | TAATGTGCATGGACCGGTTTTCCCGGTAATCCGTATTTGGG (site TAATGCGCTCC) | 0.00475
58 | TAATGTGCATGGACCGGTTTTCCCGGTAATCCGTATTTGGG (site TAATGGGCTCC) | 0.00856
59 | TAATGTGCATGGACCGGTTTTCCCGGTAATCCGTATTTGGG (site TAATGTGCTCC) | 0.0867
60 | TAATTGACATGGACCGGTTTTCCCGGTAATCCGTATTTGCT (site TAATTGACTAG) | 2.35
61 | TAATTGACATGGACCGGTTTTCCCGGTAATCCGTATTTGCT (site TACTTGACTAG) | 1.17
62 | TAATTGACATGGACCGGTTTTCCCGGTAATCCGTATTTGCT (site TAGTTGACTAG) | 1.39
63 | TAATTGACATGGACCGGTTTTCCCGGTAATCCGTATTTGCT (site TATTTGACTAG) | 0.698
64 | TACAACACATGGACCGGTTTTCCCGGTAATCCGTATTTGTG (site TACAACACTCA) | 0.148
65 | TACAATACATGGACCGGTTTTCCCGGTAATCCGTATTTGCA (site TAAAATACTTG) | 0
66 | TACAATACATGGACCGGTTTTCCCGGTAATCCGTATTTGCA (site TACAATACTTG) | 1.18
67 | TACAATACATGGACCGGTTTTCCCGGTAATCCGTATTTGCA (site TAGAATACTTG) | 0
68 | TACAATACATGGACCGGTTTTCCCGGTAATCCGTATTTGCA (site TATAATACTTG) | 0
